{"source": "patent US20210008097A1", "about": "“Compositions Comprising Galactose-Pronged Polysaccharides” (Galectin Therapeutics, Inc., priority 2006, published 2021)", "key": {"[1]": {"details": "after 24 hrs; cited from earlier work"}, "[2]": {"experiment": "Liver, lung, kidney and plasma distribution of radiolabeled (tritiated) galactomannan after single intravenous injection", "format": "in vivo, male NCr-nu athymic nude mice", "details": "for μCi of 3H-galactomannan per 1 g of kidney / μCi of 3H-galactomannan per 1 g of liver / μCi of 3H-galactomannan per 1 g of lungs / μCi of 3H-galactomannan per kidney, total / μCi of 3H-galactomannan per lungs, total / μCi of 3H-galactomannan per mL of plasma / μCi of 3H-galactomannan per liver, total: 6 or 60 mg/kg i.v., pooled; for μCi of 3H-galactomannan per liver, total: average of four animals", "source_text": "Twelve male NCr-nu athymic nude mice (Charles Rivers Laboratories, Raleigh, N.C.) were acclimated in the laboratory one week prior to experimentation. The animals were housed in microisolator cages, four per cage, and using a 12-hour light/dark cycle. All animals received sterilized tap water and sterile rodent food ad libitum. The animals were observed daily and clinical signs were noted. The mice were healthy and had not been previously used in other experimental procedures.\nTritiation of the galactomannan was performed as follows. 12.8 mg of the galactomannan was dissolved in 2.0 mL of water and exposed to 25 Curies of tritium gas in the presence of Pd/BaSO4 catalyst (120 mg, totally insoluble in water). After one hour the gas supply was removed, the catalyst was filtered away, and the aqueous solution of the galactomannan was evaporated to dryness repeatedly (four-fold, adding water), until no labile tritium was found. Total yield of the labeled galactomannan was 3.8 mCi, specific radioactivity was […].\nAll twelve mice were given a single intravenous injection of cold or tritiated galactomannan (either 6 or 60 mg/kg) on the same day. Non-labeled galactomannan was formulated in saline, and tritiated galactomannan was added to the solution so that each animal received 10 μCi of radioactivity. All dosing solutions (100 μL each) were counted in duplicate. Six mice were injected with 6 mg/kg solution, and six mice—with 60 mg/kg solution.\nTwo mice from each group were bled at 1, 6, and 24 hrs after injection, and plasma was prepared. Animals were then sacrificed; livers, kidneys and lungs were collected, weighed and flash-frozen for further analysis.\nAfter weighing, livers were dissolved in 10 mL of Soluene 350 and incubated first for 4 hrs at 50° C., and at room temperature, until tissues were solubilized. One mL of the resulting solution was counted in a scintillation counter as a single sample. Based on tissue weight and the sample volume, the number of μCi of tritiated galactomannan per gram of tissue was calculated.\nKidneys were treated in the same manner, but dissolved in two mL of Soluene. After the tissue was solubilized at room temperature, 15 mL of Safety Solve scintillation fluid was added and samples were incubated overnight. Five mL of the resulting solution were diluted in 15 mL of Safety Solve and counted in a scintillation counter as a single sample. Lungs were treated in the same manner but dissolved in one mL of Soluene. Plasma samples (50 μL each) were placed direct into Safety Solve and counted as a single sample.\nThe statistical evaluation was based on experiments to trace and quantify the labeled galactomannan in organs/tissues (liver, kidneys, lung, and plasma). Six mice were treated with galactomannan at 60 mg/kg with each of 2 mice sacrificed at 1, 6, and 24 hours; six mice were treated with galactomannan at 6 mg/kg with each of 2 mice sacrificed at 1, 6, and 24 hours, as described above. The percentages of ^3H-galactomannan recovered per organ (μCi/gram) was used for analyses; plasma outcome (μCi/ml) was counted from the entire sample.\nThe assessment of radiolabel uptake was challenging with only two mice per treatment-sacrifice time combination and occasional outliers. To address the number of mice per group, pooling tests were performed for the two galactomannan treatment groups; this would potentially increase sample size per group to four. To address possible outliers, all outcomes for each individual mouse was visually compared to the other mice in the series-treatment-time combination; the four possible mice outcomes were considered in this evaluation since any sigma-based rule would have excluded none or both observations if applied separately to the two different series.\nSAS (Version 6.12, Cary, N.C.) was used for all analyses. PROC ANOVA was used for pooling tests, while […] was used to estimate means and standard deviations.\nOverall, the data in Table 1 are average for four animals."}}}
{"compound": "O=c1[nH]cc(F)c(=O)[nH]1", "note": "[5-fluorouracil]", "values": [{"measurement": "clearance from the kidneys, eliminated to", "setting": "[1]", "result": 3.8, "unit": "%"}, {"measurement": "clearance from the liver, eliminated to", "setting": "[1]", "result": 1.6, "unit": "%"}, {"measurement": "clearance from the lungs, eliminated to", "setting": "[1]", "result": 3.6, "unit": "%"}]}
{"compound": "galactomannan", "values": [{"measurement": "increase of the amount of bound galactomannan", "setting": "[2]; 60 mg/kg versus 6 mg/kg (10-times higher dose)", "result": 10, "unit": "fold"}, {"measurement": "μCi of 3H-galactomannan per 1 g of kidney", "setting": "[2]; 1 hr after injection", "result": 0.302, "unit": "μCi/gram"}, {"measurement": "μCi of 3H-galactomannan per 1 g of liver", "setting": "[2]; 1 hr after injection", "result": 0.219, "unit": "μCi/gram"}, {"measurement": "μCi of 3H-galactomannan per 1 g of lungs", "setting": "[2]; 1 hr after injection", "result": 0.117, "unit": "μCi/gram"}, {"measurement": "μCi of 3H-galactomannan per kidney, total", "setting": "[2]; 1 hr after injection", "result": 0.120, "unit": "μCi"}, {"measurement": "μCi of 3H-galactomannan per lungs, total", "setting": "[2]; 1 hr after injection", "result": 0.019, "unit": "μCi"}, {"measurement": "μCi of 3H-galactomannan per mL of plasma", "setting": "[2]; 1 hr after injection", "result": 0.201, "unit": "μCi/ml"}, {"measurement": "μCi of 3H-galactomannan per liver, total", "setting": "[2]; 1 hr after injection", "result": 0.262, "unit": "μCi"}, {"measurement": "μCi of 3H-galactomannan per 1 g of kidney", "setting": "[2]; 6 hr after injection", "result": 0.131, "unit": "μCi/gram"}, {"measurement": "μCi of 3H-galactomannan per 1 g of liver", "setting": "[2]; 6 hr after injection", "result": 0.146, "unit": "μCi/gram"}, {"measurement": "μCi of 3H-galactomannan per 1 g of lungs", "setting": "[2]; 6 hr after injection", "result": 0.063, "unit": "μCi/gram"}, {"measurement": "μCi of 3H-galactomannan per kidney, total", "setting": "[2]; 6 hr after injection", "result": 0.060, "unit": "μCi"}, {"measurement": "μCi of 3H-galactomannan per lungs, total", "setting": "[2]; 6 hr after injection", "result": 0.012, "unit": "μCi"}, {"measurement": "μCi of 3H-galactomannan per mL of plasma", "setting": "[2]; 6 hr after injection", "result": 0.095, "unit": "μCi/ml"}, {"measurement": "μCi of 3H-galactomannan per liver, total", "setting": "[2]; 6 hr after injection", "result": 0.196, "unit": "μCi"}, {"measurement": "μCi of 3H-galactomannan per 1 g of kidney", "setting": "[2]; 24 hrs after injection", "result": 0.087, "unit": "μCi/gram"}, {"measurement": "μCi of 3H-galactomannan per 1 g of liver", "setting": "[2]; 24 hrs after injection", "result": 0.129, "unit": "μCi/gram"}, {"measurement": "μCi of 3H-galactomannan per 1 g of lungs", "setting": "[2]; 24 hrs after injection", "result": 0.060, "unit": "μCi/gram"}, {"measurement": "μCi of 3H-galactomannan per kidney, total", "setting": "[2]; 24 hrs after injection", "result": 0.040, "unit": "μCi"}, {"measurement": "μCi of 3H-galactomannan per lungs, total", "setting": "[2]; 24 hrs after injection", "result": 0.011, "unit": "μCi"}, {"measurement": "μCi of 3H-galactomannan per mL of plasma", "setting": "[2]; 24 hrs after injection", "result": 0.106, "unit": "μCi/ml"}, {"measurement": "μCi of 3H-galactomannan per liver, total", "setting": "[2]; 24 hrs after injection", "result": 0.169, "unit": "μCi"}, {"measurement": "saturation of the binding to liver, kidney, lung, and plasma", "setting": "[2]; between the 6 mg/kg and 60 mg/kg doses", "result": "did not reach saturation of the binding"}, {"measurement": "share of the radioactivity detected at one hour after injection still present", "setting": "[2]; liver, at 24 hours, average", "result": "more than 50%"}, {"measurement": "share of the one-hour radioactivity detected", "setting": "[2]; plasma, kidneys, and lungs, at 6 hours, average", "result": "approximately 50%"}]}
